# Patent US10501741B2, “Methods and compositions for inhibiting growth and epithelial to mesenchymal transition (EMT) in cancer cells” (Cold Spring Harbor Laboratory, priority 2014, dated 2019)
# “Also recorded” adds a separate entry of the source.
# Assays:
# [1] = test system: E-cadherin; test: E-cadherin mRNA upon H2O2 treatment (SYBR-green real-time RT-PCR); format: cell-based
# Experimental: (§1) FIG. 7A presents Western blot analysis of A549 cells ectopically expressing p53Ψ upon transfection with two independent siRNA targeting cyclophilin D (CypD). […] Data represent expression levels compared to actin (mean±SD, n=6; p<0.0001, Student's t-test) as measured by SYBR-green-based real-time RT-PCR. […] Cell motility was measured in a standard wound healing experiment. […] Each bar represents the average of four individual wounds. […] Data represent relative expression compared to the vector control (mean±SD, n=6; p<0.0001, Student's t-test). […] Cells were treated for 5 days with 10 mM NAC. FIG. 7F presents a schematic of a proposed mechanism of the p53Ψ-induced EMT. Upon acute oxidative stress, p53FL was previously shown to interact with CypD and trigger necrotic cell death by opening mPTP pore (left panel).
# (§2) To determine whether CypD and ROS have a causative role in EMT mediated by p53Ψ, CypD and ROS levels were modulated in cells ectopically expressing p53Ψ (A549, MCF7, H1299) and their effects on expression of EMT markers and cell invasion were assessed.
# [2] = test system: A549 cells ectopically expressing p53Ψ; test: Matrigel invasion assay; format: cell-based, human; conditions: NAC 10 mM, 5 days, invasion assessed after 30 hours
# Experimental: (§3) Data shown represent relative expression compared to ectopic expression of a vector control (mean±SD, n=6; p<0.0001, Student's t-test). […] Cells were also treated with 10 mM NAC for 5 days. The cell extracts were probed for E-cadherin, p53, CypD, and as a control GAPDH. […] Cells were treated with 10 mM NAC or 500 μM Tempol for 5 days, then extracts were probed for E-cadherin, p53 and GAPDH as indicated. […] Cells were grown in the presence or absence of NAC (10 mM). After 5 days, the invasive potential of cells was determined using a standard Matrigel invasion assay. Filter chambers were coated with 40 μl Matrigel and invasion was assessed after 30 hours.
# as §2
# [3] = test system: A549 cells ectopically expressing p53Ψ; test: E-cadherin expression with ROS scavengers; format: cell-based, human; conditions: 10 mM NAC or 500 μM Tempol for 5 days
# Experimental: as §1
# Data shown represent relative expression compared to ectopic expression of a vector control (mean±SD, n=6; p<0.0001, Student's t-test). […] After 5 days, the invasive potential of cells was determined using a standard Matrigel invasion assay. Filter chambers were coated with 40 μl Matrigel and invasion was assessed after 30 hours.
# as §2
# [4] = test system: A549 cells expressing p53Ψ; test: epistasis experiment: CypD silencing and NAC, E-cadherin Western blot; format: cell-based, human
# Experimental: as §3
# To exclude the possibility that ROS-induced EMT was independent of CypD in p53Ψ-expressing cells, epistasis experiments were performed. Specifically, E-cadherin expression was measured upon manipulation of ROS levels (e.g. by NAC treatment) in cells ectopically expressing p53Ψ in the presence and absence of CypD (FIG. 13B). If CypD and p53Ψ act on parallel pathways, an additive effect of CypD silencing and ROS inhibition would be predicted. In contrast, if p53Ψ acts solely through CypD, then CypD silencing would be sufficient to reduce ROS levels and no additive effect would be observed. […] This in turn is necessary and sufficient for p53Ψ-induced EMT (FIG. 7F, right panel).
# [5] = test system: mitochondrial permeability transition pore (mPTP) in A549 cells expressing p53Ψ; test: calcein AM assay of mPTP permeability; format: cell-based, human; conditions: ionomycin 50 nM, control; all experimental settings
# Description: In this assay, cells are loaded with Calcein (acetomethylester) together with its quencher Cobalt ions. Calcein freely diffuses throughout the cell including into the mitochondrial matrix. But the Cobalt quencher cannot diffuse across the inner mitochondrial membrane, therefore quenching Calcein fluorescence everywhere except in the mitochondrial matrix. Thus, Calcein fluorescence comes only from the matrix. Only upon PTP opening will Cobalt ions gain access to the matrix and quench Calcein, resulting in a sharp drop of mitochondrial fluorescence, which can be measured by FACS or microscopy (FIG. 6B).
# [6] = test system: cells ectopically expressing p53Ψ (A549, MCF7, H1299); test: EMT induction by p53Ψ upon modulation of CypD; format: cell-based, human
# Experimental: as §2
# [7] = test system: MCF7 cells ectopically expressing p53Ψ; test: real-time PCR of EMT markers in MCF7 cells; format: cell-based, human; conditions: CsA 2 mM for 5 days
# [8] = test system: H1299 cells ectopically expressing p53Ψ; test: qRT-PCR of EMT markers in H1299 cells; format: cell-based, human; conditions: 2 mM CsA for 5 days
# [9] = test system: A549 cells ectopically expressing p53Ψ; test: wound healing (cell motility) assay; format: cell-based, human; conditions: 2 mM CsA for 5 days, closure at 48 hours
# Experimental: as §1, §2
# [10] = test system: A549 cells expressing p53Ψ; test: MitoSOX staining of mitochondrial superoxide; format: cell-based, human; conditions: MitoSOX 1 μM
# Experimental: FIG. 6A presents Western blot analysis of mitochondrial fractions of A549 cells ectopically expressing p53Ψ. The fractions were immunoprecipitated with a CypD-specific antibody and probed with a p53 N-terminal antibody, or CypD and Smurf1 antibodies as controls. […] FIG. 6B depicts a schematic of the calcein AM assay. […] The fluorescence was detected by laser confocal microscopy after 15 minutes. Non-mitochondrial calcein fluorescence was quenched by co-treatment with CoCl2. Treatment with the ionophore ionomycin (50 nM) was used as a control. […] FIG. 6D presents the % decrease in calcein fluorescence upon quenching of cytosolic calcein with CoCl2 in three independent experiments. The median calcein fluorescence was assessed by FACS. Calcein was loaded at 10 nM and detected after 15 minutes at 515 nm upon excitation with Red HeNe at 495 nm. Treatment with ionomycin was used as a control to estimate basal fluorescence. FIG. 6E presents representative fluorescence microscopy images of A549 cells loaded with MitoSOX (1 μM). Images show the fluorescence upon excitation at 390 nm, mainly from the hydroxyethidium derivative. DAPI was used as a counterstain. FIG. 6F presents the quantification of the MitoSox-positive fractions in three independent FACS experiments from FIG. 6E. […]
# [11] = test system: HOP62 cells; test: p53Ψ silencing in HOP62 cells (morphology, qRT-PCR of EMT markers); format: cell-based, human
# Description: Representative micrographs are presented showing cells 4 days after transfection with a mixture of two independent siRNA oligonucleotides targeting p53. […] No difference in Snail expression was observed. Data shown represent relative expression levels compared to actin (mean±SD, n=6; p<0.0001, Student's t-test) as measured by SYBR-green-based real-time RT-PCR. […] Level of expression of p53FL and p53Ψ in MCF7 are provided in FIGS. 11B and 10E, respectively. FIG. 4D presents qRT-PCR analysis of the canonical EMT markers E-cadherin (ECAD) and vimentin (VIM) as well as the EMT master regulators Snail, Slug, Twist, and Zeb1, in H1299 cells ectopically expressing p53Ψ or p53FL. Data shown represent relative expression levels compared to actin (mean±SD, n=6; p<0.0001, Student's t-test) as measured by SYBR-green-based real-time RT-PCR. FIG. 4E depicts the percent wound closure at the indicated time points in a 2D monolayer of A549 cells expressing p53Ψ, p53FL, or vector control. […] Filter chambers were coated with 40 μl Matrigel, and invasion was assessed after 30 hours. TGF-β treated cells were used as a positive control.
# Somatic alterations of the p53 tumor suppressor gene located on chromosome 17p often occur in cancers and are associated with poor prognosis. In these tumors, p53 mutations disable p53-mediated inhibition of proliferation and promotion of apoptosis in response to stress. In addition, missense p53 mutations may have gain-of-function activities that lead to an increased metastatic spread. […] To test this hypothesis p53Ψ expression was silenced in HOP62 cells. These mesenchymal cells are homozygous for the c.673−2A to G mutation and inherently express exclusively a p53Ψ-like isoform (FIG. 2I and FIG. 9O). […] Cells in which p53Ψ expression was silenced lost the elongated appearance typical of mesenchymal-like cells and instead acquired a cobblestone morphology characteristic of epithelial cells (FIG. 4A).
compound,measurement,setting,value
OO [H2O2],cell viability,[1]; low doses of H2O2,without compromising cell viability
same,expression of E-cadherin,[1]; low doses of H2O2 for 5 days,decreased the expression of E-cadherin
"CC(=O)N[C@@H](CS)C(=O)O [NAC, N-acetyl cysteine]",invasive capabilities (Matrigel invasion),[2],decreased invasive capabilities; also recorded: sufficient to decrease the invasion capabilities
same,expression of E-cadherin,[3],augmented expression of E-cadherin
same,E-cadherin expression in cells in which CypD was silenced,"[4]; CypD siRNA, 10 mM NAC for 5 days",did not increase E-cadherin expression
CC1(C)CC(O)CC(C)(C)N1[O] [Tempol],invasive capabilities (Matrigel invasion),[2],decreased invasive capabilities
same,expression of E-cadherin,[3],augmented expression of E-cadherin
C[C@H](CCC(=O)O)C[C@H](C)C[C@H](C)C(=O)/C=C(\O)[C@H](C)C[C@H](C)C/C=C/[C@@H](C)[C@@H](O)[C@@H](C)[C@@H](O)C[C@@H]1CC[C@@](C)([C@H]2CC[C@@](C)([C@@H](C)O)O2)O1 [ionomycin],mitochondria calcein fluorescence,[5],rapid loss of mitochondria calcein fluorescence
"CypD siRNA: siRNA AGGCAGATGTCGTCCCAAA (SEQ ID NO:10); CGACTTCACCAACCACAAT (SEQ ID NO:11), from Invitrogen (listed as DNA, chemistry not given here)",EMT in cells expressing p53Ψ,[6],sufficient to prevent EMT
same,p53Ψ-induced EMT,[4]; CypD silenced,blocked p53Ψ-induced EMT
cyclosporin A [CsA],expression of E-cadherin (real-time PCR),[7],restore expression of E-cadherin to levels similar to parental cells
same,expression of EMT markers (real-time PCR),[7],reduce expression of EMT markers
same,EMT in cells expressing p53Ψ,[6],sufficient to prevent EMT
same,expression of E-cadherin (qRT-PCR),[8],restore expression of E-cadherin to a level similar to that observed in control cells
same,expression of EMT markers (qRT-PCR),[8],reduce expression of EMT markers
same,cell motility (wound healing),[9],diminish cell motility
same,MitoSOX fluorescence (mitochondrial superoxide),[10],decreased
"p53 siRNA: siRNA GGGTTAGTTTACAATCAGC (SEQ ID NO:5); GGTGAACCTTAGTACCTAA (SEQ ID NO:6), from Invitrogen (listed as DNA, chemistry not given here)",cell morphology,[11]; 4 days after transfection with two siRNA targeting p53,loss of mesenchymal-like features and the acquisition of an epithelial morphology
same,Snail expression,[11]; p53 siRNA,No difference
same,expression of E-cadherin,[11]; p53Ψ knockdown,increased expression of E-cadherin
same,"expression of vimentin, Zeb1, Twist and Slug",[11]; p53Ψ knockdown,diminished expression
